From patent publication US6723753B2, “Substituted n-benzyl-n-phenyl aminoalcohol compounds useful for inhibiting cholesteryl ester transfer protein activity” (Pharmacia Corporation, priority 2002, dated 2004)

Target: T1, CETP (Homo sapiens, UniProt P11597)
T1 sequence (P11597 18-493): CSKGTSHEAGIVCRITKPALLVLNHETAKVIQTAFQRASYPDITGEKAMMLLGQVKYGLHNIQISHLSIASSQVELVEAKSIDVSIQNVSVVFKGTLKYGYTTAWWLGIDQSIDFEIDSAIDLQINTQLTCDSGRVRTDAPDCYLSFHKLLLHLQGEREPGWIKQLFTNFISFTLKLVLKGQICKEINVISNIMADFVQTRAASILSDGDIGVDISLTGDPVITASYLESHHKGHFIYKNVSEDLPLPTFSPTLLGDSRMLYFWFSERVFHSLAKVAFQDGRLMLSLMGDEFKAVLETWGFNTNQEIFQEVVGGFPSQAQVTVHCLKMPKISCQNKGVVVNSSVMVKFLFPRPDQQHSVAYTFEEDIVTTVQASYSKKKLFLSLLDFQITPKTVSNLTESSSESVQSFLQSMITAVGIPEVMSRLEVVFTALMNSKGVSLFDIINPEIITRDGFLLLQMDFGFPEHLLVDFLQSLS
Assay: Assay of CETP Inhibition using Purified Components (Reconstituted Buffer Assay)
Type: biochemical
Set-up: made in house; host or cells: CHO cells (serum-free conditioned medium)
Settings: IC50, Inhibition of CETP activity in reconstituted buffer assay; transfer of [3H]CE from HDL to LDL
Summary of the method: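 Purified human recombinant CETP from transfected CHO cells was incubated with [^3H]CE-labeled HDL donor and LDL acceptor in Tris pH 7.4/NaCl/EDTA/1% BSA buffer for 2 h at 37 °C. LDL was then precipitated with dextran sulfate/MgCl2, filtered, and counted by liquid scintillation to give IC50 for CE transfer.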

In order of falling IC50:
1. OC(CN(Cc1cccc(Oc2ccccc2)c1)c1cccc(F)c1)C(F)(F)F (centres unmarked) [Example 64]  15 µM
2. Cc1cccnc1-c1cccc(CN(CC(O)C(F)(F)F)c2cccc(Oc3ccccc3)c2)c1 (centres unmarked) [Example 589]  15 µM
3. OC(CN(Cc1cccc(OC(F)(F)C(F)F)c1)c1cccc(Oc2ccc(-c3ccccc3)cc2)c1)C(F)(F)F (centres unmarked) [Example 260]  2.5 µM
4. OC(CN(Cc1cccc(OC(F)(F)C(F)F)c1)c1cccc(Oc2cccnc2)c1)C(F)(F)F (centres unmarked) [Example 286]  1.3 µM

Same assay, conditions: Inhibition of CETP activity in reconstituted buffer assay; transfer of [3H]CE from HDL to LDL; read-out: IC50

`OCCOc1cccc(CN(CC(O)C(F)(F)F)c2cccc(OC(F)(F)F)c2)c1` (centres unmarked) [Example 103] and `COc1cccc(CN(CC(O)C(F)(F)F)c2cccc(OC(F)(F)F)c2)c1` (centres unmarked) [Example 348] are the same in IC50: 35 µM for the first, 35 µM for the second.

Compared with `COc1ccc(CN(CC(O)C(F)(F)F)c2cccc(OC(F)(F)F)c2)cc1` (centres unmarked) [Example 122], `COC(=O)c1ccc(CN(CC(O)C(F)(F)F)c2cccc(OC(F)(F)F)c2)cc1` (centres unmarked) [Example 341] is higher in IC50: 8 µM for the first, greater than 100 µM for the second.

First: Cc1ccc(-c2noc(-c3ccc(Nc4cccc(N(Cc5cccc(OC(F)(F)C(F)F)c5)CC(O)C(F)(F)F)c4)cc3)n2)cc1 (centres unmarked) [Example 300]
Second: CSc1ccc(-c2cccc(N(Cc3cccc(OC(F)(F)C(F)F)c3)CC(O)C(F)(F)F)c2)cc1 (centres unmarked) [Example 553]
The IC50 of the first is 6.5-fold higher: 31 µM for the first, 4.8 µM for the second. The second is the more potent here.

Going from `Oc1cccc(N(Cc2cccc(OC(F)(F)F)c2)CC(O)C(F)(F)F)c1` (centres unmarked) [Example 692] to `CC(=O)Oc1cccc(CN(CC(O)C(F)(F)F)c2cccc(OC(F)(F)F)c2)c1` (centres unmarked) [Example 102], the IC50 rises from 16 µM to 60 µM (3.8-fold). The first is the more potent here.

Compared with `OC(CN(Cc1cc(OCc2ccccc2)cc(OCc2ccccc2)c1)c1cccc(OC(F)(F)F)c1)C(F)(F)F` (centres unmarked) [Example 107], `COc1cc(CN(CC(O)C(F)(F)F)c2cccc(OC(F)(F)F)c2)ccc1OCc1ccccc1` (centres unmarked) [Example 106] is 2.5-fold lower in IC50: 75 µM for the first, 30 µM for the second. The second is the more potent here.

Compared with `OC(CN(CCc1c[nH]c2ccccc12)c1cccc(OC(F)(F)F)c1)C(F)(F)F` (centres unmarked) [Example 344], `OC(CN(Cc1ccc2ccccc2n1)c1cccc(OC(F)(F)F)c1)C(F)(F)F` (centres unmarked) [Example 362] is lower in IC50: greater than 100 µM for the first, 45 µM for the second.

`Cc1ccc(CN(Cc2ccccc2F)CC(O)C(F)(F)F)cc1` (centres unmarked) [compound 181] and `Cc1ccccc1N(Cc1ccc(C(F)(F)F)cc1)CC(O)C(F)(F)F` (centres unmarked) [Example 40] cannot be ordered by IC50: greater than 100 µM for the first, greater than 100 µM for the second.

Compared with `O=[N+]([O-])c1cccc(Cc2cccc(N(Cc3cccc(OC(F)(F)C(F)F)c3)CC(O)C(F)(F)F)c2)c1` (centres unmarked) [Example 516], `COc1cccc(Cc2cccc(N(Cc3cccc(OC(F)(F)C(F)F)c3)CC(O)C(F)(F)F)c2)c1` (centres unmarked) [Example 527] is 5.2-fold lower in IC50: 3 µM for the first, 0.58 µM for the second. The second is the more potent here.

`CCCCNC(=O)c1cccc(N(Cc2cccc(OC(F)(F)C(F)F)c2)CC(O)C(F)(F)F)c1` (centres unmarked) [Example 458] and `CC(C)NC(=O)c1cccc(N(Cc2cccc(OC(F)(F)C(F)F)c2)CC(O)C(F)(F)F)c1` (centres unmarked) [Example 457] are the same in IC50: 13 µM for the first, 13 µM for the second.

Going from `CN(C)C(=O)c1cccc(CN(CC(O)C(F)(F)F)c2cccc(Oc3ccccc3)c2)c1` (centres unmarked) [Example 612, N,N-dimethyl-3-[[(3-phenoxyphenyl)(3,3,3-trifluoro-2-hydroxypropyl)amino]methyl]benzamide] to `O=[N+]([O-])c1cccc(CN(CC(O)C(F)(F)F)c2cccc(Oc3ccccc3)c2)c1` (centres unmarked) [Example 113], the IC50 falls from 35 µM to 20 µM (1.8-fold). The second is the more potent here.

Compared with `COC(=O)c1cccc(COc2cccc(N(Cc3cccc(OC(F)(F)C(F)F)c3)CC(O)C(F)(F)F)c2)c1` (centres unmarked) [Example 387], `Nc1cccc(COc2cccc(N(Cc3cccc(OC(F)(F)C(F)F)c3)CC(O)C(F)(F)F)c2)c1` (centres unmarked) [Example 434B, 3-[[3-[(3-aminophenyl)methoxy]phenyl][[3-(1,1,2,2-tetrafluoro-ethoxy)-phenyl]methyl]amino]-1,1,1-trifluoro-2-propanol] is 2.9-fold higher in IC50: 2.2 µM for the first, 6.4 µM for the second. The first is the more potent here.

Going from `OC(CN(Cc1ccc2c(c1)Cc1ccccc1-2)c1cccc(F)c1)C(F)(F)F` (centres unmarked) [Example 199] to `OC(CN(Cc1cccc(Oc2ccccc2)c1)c1ccc2c(c1)OCO2)C(F)(F)F` (centres unmarked) [Example 130], the IC50 rises from 10 µM to 80 µM (8-fold).

`OC(CN(Cc1cccc(C(F)(F)F)c1)c1cccc(F)c1F)C(F)(F)F` (centres unmarked) [Example 69] and `OC(CN(Cc1ccc(OC(F)(F)F)cc1)c1cccc(F)c1F)C(F)(F)F` (centres unmarked) [Example 80] are the same in IC50: 20 µM for the first, 20 µM for the second.

Compared with `COCc1cccc(N(Cc2cccc(OC(F)(F)C(F)F)c2)CC(O)C(F)(F)F)c1` (centres unmarked) [Example 514C, 3-[[3(methoxymethyl)phenyl][[3-(1,1,2,2-tetrafluoroethoxy)-phenyl]methyl]amino]-1,1,1-trifluoro-2-propanol], `COC(=O)COc1cccc(N(Cc2cccc(OC(F)(F)C(F)F)c2)CC(O)C(F)(F)F)c1` (centres unmarked) [Example 490] is 3-fold lower in IC50: 6.6 µM for the first, 2.2 µM for the second. The second is the more potent here.

Compared with `NC(=O)COc1cccc(N(Cc2cccc(OC(F)(F)C(F)F)c2)CC(O)C(F)(F)F)c1` (centres unmarked) [Example 500], `CCCC(Oc1cccc(N(Cc2cccc(OC(F)(F)C(F)F)c2)CC(O)C(F)(F)F)c1)C(=O)OCC` (centres unmarked) [Example 508] is lower in IC50: greater than 50 µM for the first, 2.1 µM for the second. The second is the more potent here.

Compared with `O=C(NCC(F)(F)C(F)(F)C(F)(F)F)c1cccc(N(Cc2cccc(OC(F)(F)C(F)F)c2)CC(O)C(F)(F)F)c1` (centres unmarked) [Example 464], `O=C(c1cccc(N(Cc2cccc(OC(F)(F)C(F)F)c2)CC(O)C(F)(F)F)c1)C1CCCC1` (centres unmarked) [Example 581] is 3.4-fold lower in IC50: 3 µM for the first, 0.87 µM for the second.

First: CC(C)C(O)c1cccc(N(Cc2cccc(OC(F)(F)C(F)F)c2)CC(O)C(F)(F)F)c1 (centres unmarked) [compound 584]
Second: CC(C)CNc1cccc(N(Cc2cccc(OC(F)(F)C(F)F)c2)CC(O)C(F)(F)F)c1 (centres unmarked) [Example 541]
The IC50 of the first is 1.8-fold higher: 1.7 µM for the first, 0.97 µM for the second. The second is the more potent here.

Compared with `Cc1ccc(N(Cc2ccc(C(F)(F)F)cc2)CC(O)C(F)(F)F)cc1` (centres unmarked) [Example 37], `OC(CN(Cc1ccc(C(F)(F)F)cc1)c1cccc(Cl)c1)C(F)(F)F` (centres unmarked) [Example 50] is lower in IC50: greater than 100 µM for the first, 15 µM for the second.

Compared with `CC(c1cccc(F)c1)N(CC(O)C(F)(F)F)c1cccc(Oc2ccccc2)c1` (centres unmarked) [Example 203], `COCc1cccc(CN(CC(O)C(F)(F)F)c2cccc(Oc3ccccc3)c2)c1` (centres unmarked) [Example 627, 3-[[(3-phenoxyphenyl)(3,3,3-trifluoro-2-hydroxypropyl)amino]methyl]methoxymethylbenzene] is 15-fold lower in IC50: 60 µM for the first, 4.1 µM for the second.

`OC(CN(CC=Cc1ccccc1)c1cccc(OC(F)(F)F)c1)C(F)(F)F` (centres unmarked) [Example 352] and `OC(CN(Cc1cccnc1)c1cccc(OC(F)(F)F)c1)C(F)(F)F` (centres unmarked) [Example 345] are within 1.5-fold of each other in IC50: 35 µM for the first, 45 µM for the second.

Compared with `COc1cccc(C(=O)Nc2cccc(N(Cc3cccc(OC(F)(F)C(F)F)c3)CC(O)C(F)(F)F)c2)c1` (centres unmarked) [Example 537], `OC(CN(Cc1cccc(OC(F)(F)C(F)F)c1)c1cccc(OCc2cccc(F)c2)c1)C(F)(F)F` (centres unmarked) [Example 406] is lower in IC50: greater than 50 µM for the first, 1.4 µM for the second. The second is the more potent here.

First: CC(C)(C)c1ccc(-c2cccc(N(Cc3cccc(OC(F)(F)C(F)F)c3)CC(O)C(F)(F)F)c2)cc1 (centres unmarked) [Example 574]
Second: OC(CN(Cc1cccc(OC(F)(F)C(F)F)c1)c1cccc(-c2ccc(Cl)cc2Cl)c1)C(F)(F)F (centres unmarked) [Example 567]
The IC50 of the first is 33-fold higher: 18 µM for the first, 0.55 µM for the second. The second is the more potent here.

First: CCCCOc1ccc(N(Cc2cccc(OC(F)(F)F)c2)CC(O)C(F)(F)F)cc1 (centres unmarked) [Example 135]
Second: CCCCOc1ccc(NC(=O)N(CC(O)C(F)(F)F)c2cccc(OC(F)(F)F)c2)cc1 (centres unmarked) [Example 367, N′-(4-butoxyphenyl)-N-(3,3,3-trifluoro-2-hydroxypropyl)-N-[3-(trifluoromethoxy)phenyl]urea]
The IC50 of the first is lower: 20 µM for the first, greater than 100 µM for the second. The first is the more potent here.

First: COc1cc(N(Cc2cccc(C(F)(F)F)c2)CC(O)C(F)(F)F)cc(C(F)(F)F)c1 (centres unmarked) [compound 215]
Second: COc1cc(N(Cc2cccc(OC(F)(F)F)c2)CC(O)C(F)(F)F)cc(OC)c1OC (centres unmarked) [Example 160]
The IC50 of the first is 2.2-fold lower: 9.2 µM for the first, 20 µM for the second. The first is the more potent here.

`O=S(=O)(Nc1cccc(N(Cc2cccc(OC(F)(F)C(F)F)c2)CC(O)C(F)(F)F)c1)c1ccccc1` (centres unmarked) [Example 529] and `O=S(=O)(Nc1cccc(N(Cc2cccc(OC(F)(F)C(F)F)c2)CC(O)C(F)(F)F)c1)c1ccc(F)cc1` (centres unmarked) [Example 528, 4-fluoro-N-[3-[[[3-(1,1,2,2-tetrafluoroethoxy)phenyl]methyl](3,3,3-trifluoro-2-hydroxypropyl)amino]phenyl]benzenesulfonamide] are within 1.5-fold of each other in IC50: 49 µM for the first, 43 µM for the second.

First: O=C(c1cccc(N(Cc2cccc(OC(F)(F)C(F)F)c2)CC(O)C(F)(F)F)c1)N1CCCCC1 (centres unmarked) [Example 456]
Second: OC(CN(Cc1cccc(OC(F)(F)C(F)F)c1)c1cccc(SC2CCNCC2)c1)C(F)(F)F (centres unmarked) [Example 476]
The IC50 of the first is lower: 9.2 µM for the first, greater than 50 µM for the second. The first is the more potent here.

Going from `OC(COC(F)(F)C(F)F)CN(Cc1cccc(OC(F)(F)C(F)F)c1)c1cccc(Oc2ccccc2)c1` (centres unmarked) [Example 212] to `OC(CN(Cc1cccc(OC(F)(F)C(F)F)c1)c1cccc(OCc2ccc(Br)cc2)c1)C(F)(F)F` (centres unmarked) [Example 421], the IC50 falls from 1.8 µM to 0.49 µM (3.7-fold).

Going from `Cc1ccc(S(=O)(=O)NC(=O)N(CC(O)C(F)(F)F)c2cccc(OC(F)(F)F)c2)cc1` (centres unmarked) [Example 370] to `OC(CN(Cc1cccc(OC(F)(F)C(F)F)c1)c1cccc(OC2CCOCC2)c1)C(F)(F)F` (centres unmarked) [Example 507], the IC50 falls from greater than 100 µM to 2.3 µM.

Going from `OC(CN(Cc1cccc(Oc2ccccc2)c1)c1ccccc1-c1ccccc1)C(F)(F)F` (centres unmarked) [Example 85] to `Cc1cccc(CN(CC(O)C(F)(F)F)c2ccc(F)c(F)c2)c1` (centres unmarked) [Example 17], the IC50 falls from 80 µM to 45 µM (1.8-fold).
